According to publication PMC3792051, “Polyenylpyrrole Derivatives Inhibit NLRP3 Inflammasome Activation and Inflammatory Mediator Expression by Reducing Reactive Oxygen Species Production and Mitogen-Activated Protein Kinase Activation” (PLoS ONE, 2013):

Tested on: LPS-activated RAW 264.7 macrophages
Test: NO production inhibitory assay (Griess reaction)
Assay type: cell-based, murine
Procedure: RAW 264.7 cells seeded in 24-well plates at a density of 5 × 10^5 cells/ml (1 ml) were incubated for 24 h with or without LPS (1 µg/ml) in the absence or presence of the test samples, then NO production was measured indirectly by analysis of nitrite levels using the Griess reaction.
To investigate the inhibitory effect of compounds 1h, 1i, and 1n on the LPS-induced inflammatory response, NO levels in the supernatants of RAW 264.7 macrophages incubated with DMSO (vehicle) or compound 1h, 1i, or 1n for 30 min before, and during, incubation for 24 h with LPS (1 µg/ml) were measured by the Griess reaction. […] We next investigated their effect on the expression of iNOS, the NO producing enzyme, using Western blots.
Figure 2 Effect of polyenylpyrrole derivatives on the expression of inflammatory mediators in LPS-stimulated RAW 264.7 macrophages. In (A) and (C), the cells (5 × 10^5/ml; 1 ml) were incubated for 30 min with 2.5-40 µM compound 1h, 1i, or 1n or DMSO (vehicle), then LPS (1 µg/ml) was added and incubation continued for 24 h, then NO (A) or IL-6 or TNF-α (C) in the culture medium was assayed by the Griess reaction or ELISA, respectively. In (B), cells (5 × 10^5/ml; 1 ml) were pretreated for 30 min with 2.5-40 µM compound 1h or DMSO, then LPS (1 µg/ml) was added and incubation continued for 24 h, then expression of iNOS and COX-2 was measured by Western blotting. The fold increase is the intensity of the band of interest divided by that of the actin band normalized to the corresponding value for the 0 LPS/0 inhibitor control.

O=c1cc(O)cc(/C=C/C=C/C=C/C=C/c2[nH]ccc2Cl)o1 [compound 1h]
NO production by LPS-activated cells (2.5-40 µM, 30 min before and during LPS 1 µg/ml 24 h): decreased NO production by LPS-activated cells in a dose-dependent manner | ED50 (inhibition of LPS-induced NO production) (RAW 264.7 macrophages, LPS 1 µg/ml, 24 h, Griess reaction): 15 ± 2 µM | NO levels produced by non-activated cells (compound alone, no LPS (data not shown)): did not alter NO levels produced by non-activated cells
